Experiment [1] addresses T1, C1s (Homo sapiens, UniProt P09871).
T1 construct: Recombinant C1s and C1r fragments (CCP1-CCP2-SP, the γB catalytic region); made in house
T1 sequence (P09871 438-688 limits assumed): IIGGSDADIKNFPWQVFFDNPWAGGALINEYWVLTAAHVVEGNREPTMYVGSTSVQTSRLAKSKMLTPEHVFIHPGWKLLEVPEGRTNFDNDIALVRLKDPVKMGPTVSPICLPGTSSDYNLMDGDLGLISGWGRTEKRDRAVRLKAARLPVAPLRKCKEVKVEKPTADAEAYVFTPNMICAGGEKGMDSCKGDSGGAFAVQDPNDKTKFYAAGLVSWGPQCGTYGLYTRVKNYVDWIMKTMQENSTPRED
To be noted: ref Subasinghe et al, 2004 [5]; read-out: Ki (C1s, thiopheneamidine inhibitors); cited from earlier work.

Experiment [2] concerns the target T1, C1s. Put plainly: C1s inhibition IC50 assay (thioester substrate Z-Lys-SBzl with DTNB, photometric). It counts as biochemical. The following applies: 1 mM Z-Lys-SBzl, read-out: IC50 C1s. From the text:
Recombinant C1s and C1r fragments (CCP1-CCP2-SP, the γB catalytic region) containing the serine protease domain were expressed in E. Coli BL21(DE3)pLysS host strain (transformed with pET-17b vector) in form of inclusion bodies; proteins were isolated, renatured and purified as published earlier. Recombinant C1s, isolated in intact proenzyme form, was activated by limited proteolysis using the recombinant, autoactivated C1r fragment. Activated C1s and C1r were separated using Q Sepharose HP (Amersham Biosciences, Little Chalfont, UK) anion exchange chromatography.
40 µL enzyme + 10 µL inhibitor compounds were incubated (10 min, RT), and 50 µL substrate solution (1 mM final concentration) was added; incubated for 45 min and finally absorbance was read (405 nm) with a Perkin Elmer Wallac 1420 Victor2 microplate reader.

The target of a further experiment is T2, Human isolated Factor Xa (Homo sapiens, UniProt P00742).
T2 construct: purchased ThermoFisher Scientific (Waltham, MA, USA)
T2 sequence (P00742 235-488 limits assumed): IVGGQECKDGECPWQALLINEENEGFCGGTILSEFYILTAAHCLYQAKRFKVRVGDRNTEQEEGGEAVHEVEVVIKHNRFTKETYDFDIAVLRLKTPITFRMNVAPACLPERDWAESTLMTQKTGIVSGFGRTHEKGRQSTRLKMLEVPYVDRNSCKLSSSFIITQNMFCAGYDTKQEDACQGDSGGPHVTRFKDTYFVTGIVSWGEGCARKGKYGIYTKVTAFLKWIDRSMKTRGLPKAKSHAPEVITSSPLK
T2 sequence (P00742 41-179 partner limits assumed): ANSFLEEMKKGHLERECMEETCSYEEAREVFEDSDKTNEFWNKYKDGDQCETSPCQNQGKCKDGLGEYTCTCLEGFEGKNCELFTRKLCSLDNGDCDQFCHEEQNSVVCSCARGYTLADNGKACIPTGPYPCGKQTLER
Kind of experiment: Factor Xa activity assay (fluorescent substrate Boc-Leu-Gly-Arg-AMC). In kind it is biochemical. To be noted: for remaining activity at 10 µM: 10 µM compound. The method, then:
Human isolated Factor Xa protein was purchased from ThermoFisher Scientific (Waltham, MA, USA). An end-point assay was carried out using the fluorescent amide substrate Boc-Leu-Gly-Arg-AMC used for C1s 10 µM screen; assay conditions: 20 mM HEPES (pH 7,8) 100 mM NaCl, 10 mM CaCl2 30 °C, 0.05% TWEEN-20, 1% DMSO; low enzyme concentration (about 1 nM); in a 96 well microplate format (in 100 µL), using non-binding black plates (Greiner).

The structures appear in SMILES notation. Where two headings read alike, the source gives them in different places. Bounds are passed on as bounds.

Usually Ki stands for a dissociation constant, usually derived from enzyme kinetics or from competition with a known ligand. `COc1ccc(-c2csc(-c3cc(C(=N)N)sc3SC)n2)cc1` [CHEMBL28618]: at C1s [1], the Ki was 900 nM. As to `CSc1sc(C(=N)N)cc1-c1nc(-c2cnccc2Cl)cs1` [CHEMBL28723], on C1s [1], the Ki was 870 nM.

For the compound `CSc1sc(C(=N)N)cc1-c1nc(-c2csc3ccccc23)cs1` [CHEMBL28875], the Ki on C1s [1] was 450 nM. Consider `CSc1sc(C(=N)N)cc1-c1nc(-c2ccccc2C)cs1` [CHEMBL28949], for which the Ki on C1s [1] is 850 nM. Turning to `CSc1sc(C(=N)N)cc1-c1nc(-c2ccc([N+](=O)[O-])cc2)cs1` [CHEMBL29006], the Ki at C1s [1] is 1000 nM. In the case of `COc1cccc(-c2csc(-c3cc(C(=N)N)sc3SC)n2)c1` [CHEMBL29205], on C1s [1], the Ki was 470 nM. Take `CSc1sc(C(=N)N)cc1-c1nc(Cc2ccccc2)cs1` [CHEMBL29269]: at C1s [1], the Ki was 1060 nM. For `CSc1sc(C(=N)N)cc1-c1nc(-c2ccc3ccccc3c2)cs1` [CHEMBL29290], the Ki at C1s [1] was 490 nM. As to `CSc1sc(C(=N)N)cc1-c1nc(-c2ccc(C)cc2)cs1` [CHEMBL29304], the Ki on C1s [1] was 420 nM.

Take `CSc1sc(C(=N)N)cc1-c1nc(-c2cccs2)cs1` [CHEMBL31549]: the Ki at C1s [1] was 700 nM.

Take `CSc1sc(C(=N)N)cc1-c1nc(-c2cnn(-c3ccccc3)c2OCCC(C)C)cs1` [CHEMBL101698]: the Ki at C1s [1] is 1500 nM. Regarding `CSc1sc(C(=N)N)cc1-c1nc(-c2cnn(C)c2)cs1` [CHEMBL102417], the Ki at C1s [1] was 460 nM.

For the compound `CSc1sc(C(=N)N)cc1-c1nc(-c2cnn(-c3ccccc3)c2OCC2CCC2)cs1` [CHEMBL102835], the Ki on C1s [1] was 530 nM. Consider `N=C(N)c1cc(-c2nc(-c3ccccc3)cs2)c(C(F)(F)F)s1` [CHEMBL103840], for which the Ki on C1s [1] was 12500 nM. Regarding `N=C(N)c1cc(-c2nc(-c3ccccc3)cs2)c(SCc2ccccc2)s1` [CHEMBL104368], the Ki on C1s [1] is greater than 20000 nM.

Take `CCSc1sc(C(=N)N)cc1-c1nc(-c2ccccc2)cs1` [CHEMBL105102]: at C1s [1], the Ki was greater than 20000 nM. Take `CS(=O)(=O)c1sc(C(=N)N)cc1-c1nc(-c2ccccc2)cs1` [CHEMBL105652]: on C1s [1], the Ki was greater than 28000 nM. For `Cc1sc(C(=N)N)cc1-c1nc(-c2ccccc2)cs1` [CHEMBL106071], the Ki at C1s [1] is 6000 nM. For the compound `CCCc1nn(C)cc1-c1csc(-c2cc(C(=N)N)sc2SC)n1` [CHEMBL106388], the Ki at C1s [1] was 190 nM. Take `CSc1sc(C(=N)N)cc1-c1nc(-c2ccccc2)cs1` [CHEMBL281899]: at C1s [1], the Ki was 560 nM.

`COc1ccccc1-c1csc(-c2cc(C(=N)N)sc2SC)n1` [CHEMBL283080]: at C1s [1], the Ki is 850 nM. Regarding `CSc1sc(C(=N)N)cc1-c1nc(C2CCCCC2)cs1` [CHEMBL283859], the Ki on C1s [1] was 4700 nM.

Take `CSc1sc(C(=N)N)cc1-c1nc(-c2ccc(Cl)cc2Cl)cs1` [CHEMBL285142]: at C1s [1], the Ki is 3000 nM.

As for `CSc1sc(C(=N)N)cc1-c1nc(-c2cccnc2Cl)cs1` [CHEMBL285818], the Ki on C1s [1] is 1020 nM. Consider `CSc1sc(C(=N)N)cc1-c1nc(-c2ccc(Cl)cc2)cs1` [CHEMBL286243], for which, on C1s [1], the Ki was 436 nM. For the compound `COc1ccc(-c2csc(-c3cc(C(=N)N)sc3SC)n2)c(OC)c1` [CHEMBL286267], on C1s [1], the Ki is 640 nM.

`CSc1sc(C(=N)N)cc1-c1nc(-c2cccc(C)c2)cs1` [CHEMBL286498]: the Ki at C1s [1] was 960 nM. Take `CSc1sc(C(=N)N)cc1-c1nc(COc2ccccc2)cs1` [CHEMBL287292]: the Ki on C1s [1] was 520 nM.

For `CCCOc1c(-c2csc(-c3cc(C(=N)N)sc3SC)n2)cnn1-c1ccccn1` [CHEMBL317917], the Ki at C1s [1] is 70 nM.

Consider `CCCc1c(-c2csc(-c3cc(C(=N)N)sc3SC)n2)cnn1C` [CHEMBL318576], for which the Ki at C1s [1] was 330 nM.

For `CCOc1c(-c2csc(-c3cc(C(=N)N)sc3SC)n2)cnn1-c1ccccc1` [CHEMBL321341], the Ki at C1s [1] was 90 nM.

With `N=C(N)c1cc(-c2nc(-c3ccccc3)cs2)cs1` [CHEMBL321519], the Ki on C1s [1] is greater than 20000 nM. For `COc1sc(C(=N)N)cc1-c1nc(-c2ccccc2)cs1` [CHEMBL322207], the Ki on C1s [1] was 14400 nM. With `CSc1sc(C(=N)N)cc1-c1ncc(-c2ccccc2)s1` [CHEMBL322672], on C1s [1], the Ki was 3250 nM. As for `CSc1sc(C(=N)N)cc1-c1nc(-c2cnn(-c3ccccc3)c2)cs1` [CHEMBL322834], the Ki on C1s [1] was 150 nM. Turning to `CSc1sc(C(=N)N)cc1-c1nc(-c2ccc(Cl)c([N+](=O)[O-])c2)cs1` [CHEMBL413764], the Ki at C1s [1] is 860 nM. As for `CSc1sc(C(=N)N)cc1-c1nc(-c2ccc(-c3ccccc3)cc2)cs1` [CHEMBL418023], the Ki at C1s [1] was 15400 nM. Consider `CCc1sc(C(=N)N)cc1-c1nc(-c2ccccc2)cs1` [CHEMBL441273], for which the Ki on C1s [1] is 3000 nM.

The term IC50 denotes the concentration that inhibits the measured activity by half. For orientation: remaining activity means the share of the control activity or signal that is left under treatment. The low end stands for a large loss of activity, the high end for a small loss of activity. For `CCOc1ccc(C(=O)n2nnc3ccccc32)cc1` [Entry 1], the IC50 turned out to be 83 nM on C1s [2] (enzyme below 1 nM); 83.3 nM at C1s [2] (text and Figure S1). This compound also gave a remaining activity at 10 µM at Human isolated Factor Xa of 30.3%. As to `CC(=O)Nc1ccc(C(=O)n2nnc3ccccc32)cc1` [Entry 2], the IC50 at C1s [2] (enzyme below 1 nM) is 91 nM; on C1s [2] (text and Figure S1), 90.8 nM. Moreover, at Human isolated Factor Xa, the remaining activity at 10 µM is 43.1%. Turning to `COc1cc(SC)ccc1C(=O)n1nnc2ccccc21` [Entry 3], the IC50 on C1s [2] (enzyme below 1 nM) came out at 240 nM. The compound also came in with a remaining activity at 10 µM on Human isolated Factor Xa of 4.93%. Turning to `CC(C)(C)c1ccc(C(=O)n2nnc3ccccc32)cc1` [Entry 4], at C1s [2] (enzyme below 1 nM), the IC50 worked out at 1300 nM. This compound showed a remaining activity at 10 µM at Human isolated Factor Xa of 86.2%. As for `COc1ccc(C(=O)n2nnc3ccccc32)cc1OC` [Entry 5], at C1s [2] (enzyme below 1 nM), the IC50 is 1850 nM. Further, the remaining activity at 10 µM at Human isolated Factor Xa was found to be 48.3%. Regarding `O=C(c1ccc(F)c(F)c1)n1nnc2ccccc21` [Entry 6], the IC50 at C1s [2] (enzyme below 1 nM) was 2160 nM. The compound also returned a remaining activity at 10 µM on Human isolated Factor Xa of 92.3%. For `O=C(c1ccc(-c2ccccc2)cc1)n1nnc2ccccc21` [Entry 7] the same measures were 3870 nM and 92.1%.

With `CCN(CC)c1ccc(C(=O)n2nnc3ccccc32)cc1` [Entry 8], at C1s [2] (enzyme below 1 nM), the half-inhibitory concentration (IC50) worked out at 5900 nM. On Human isolated Factor Xa, this compound displayed a remaining activity at 10 µM of 76.5%. Take `COc1ccccc1C(=O)n1nc(-c2ccco2)nc1SC` [Entry 9]: the IC50 on C1s [2] (enzyme below 1 nM) was 12 nM; on C1s [2] (text and Figure S1) it was 11.6 nM; on Human isolated Factor Xa (500 µM Boc-Leu-Gly-Arg-AMC), 1250 nM. In addition, the remaining activity at 10 µM at Human isolated Factor Xa turned out to be 2.39%. With `CSc1nc(-c2ccco2)nn1C(=O)c1ccc(F)cc1` [Entry 10], the IC50 came to 44 nM at C1s [2] (enzyme below 1 nM); 43.6 nM at C1s [2] (text and Figure S1). Further, the remaining activity at 10 µM at Human isolated Factor Xa stood at 78.1%.

With `CSc1nc(-c2ccco2)nn1C(=O)c1ccccc1` [Entry 11], the IC50 at C1s [2] (enzyme below 1 nM) turned out to be 94 nM; at C1s [2] (text and Figure S1), 93.6 nM. At Human isolated Factor Xa, this compound returned a remaining activity at 10 µM of 26%.

For the compound `CCOC(=O)CSc1nc(-c2cccnc2)nn1C(=O)c1ccccc1` [Entry 12], on C1s [2] (enzyme below 1 nM), the IC50 was determined as 2400 nM. The remaining activity at 10 µM on Human isolated Factor Xa turned out to be 85.4%. Consider `O=c1oc(-c2ccco2)nc2cc(Cl)ccc12` [Entry 13], for which, at C1s [2] (enzyme below 1 nM), the IC50 amounted to 474 nM. Besides, the remaining activity at 10 µM at Human isolated Factor Xa was 98.6%. As for `COc1cc2nc(-c3ccco3)oc(=O)c2cc1OC` [Entry 14], the IC50 at C1s [2] (enzyme below 1 nM) turned out to be 6440 nM. On Human isolated Factor Xa, this compound gave a remaining activity at 10 µM of 61.4%.

`Cc1sc2nc(-c3ccccc3)oc(=O)c2c1C` [Entry 19]: the IC50 on C1s [2] (enzyme below 1 nM) is roughly 20000 nM. Turning to `Cc1ccc(-c2nc3sc(C)c(C)c3c(=O)o2)cc1` [Entry 20], the IC50 at C1s [2] (enzyme below 1 nM) is roughly 50000 nM. `Cc1cccc2c(=O)nc(-c3ccco3)oc12` [Entry 23]: the IC50 on C1s [2] (enzyme below 1 nM) is 41000 nM.
